Data published in paper PMC3646771, “The Second Intracellular Loop of the Human Cannabinoid CB2 Receptor Governs G Protein Coupling in Coordination with the Carboxyl Terminal Domain” (PLoS ONE, 2013).

Assays:
Assay in all cases: CRE-luciferase cAMP reporter, HEK293
Type in all cases: cell-based, Homo sapiens
[1] = system: T1, CB2-ICL3 (i3); details: agonist; inhibition of cAMP elevated by 10 µM forskolin, 4 h, 37 °C; pEC50 7.99±0.22
T1 construct: gene CNR2; Flag-tagged CB2 with third intracellular loop replaced by that of CB1; HEK293
Description: CRE-luciferase cAMP reporter, HEK293 on CB2-ICL3 (i3)

[2] = system: T2, CB2-ICL2ICL3 (i2i3); details: agonist; inhibition of cAMP elevated by 10 µM forskolin, 4 h, 37 °C; pEC50 8.47±0.15
T2 construct: gene CNR2; Flag-tagged CB2 with second and third intracellular loops of CB1; HEK293
Description: CRE-luciferase cAMP reporter, HEK293 on CB2-ICL2ICL3 (i2i3)

[3] = system: T3, CB2-ICL2ICL3Cter (i2i3Cter); details: agonist; inhibition of cAMP elevated by 10 µM forskolin, 4 h, 37 °C; pEC50 8.48±0.22
T3 construct: gene CNR2; Flag-tagged CB2 with second and third intracellular loops and C-terminal tail of CB1; HEK293
Description: CRE-luciferase cAMP reporter, HEK293 on CB2-ICL2ICL3Cter (i2i3Cter)

[4] = system: T4, CB2-ICL2Cter (i2Cter); details: agonist; stimulation of cAMP, no forskolin, 4 h, 37 °C; pEC50 6.85±0.1
T4 construct: gene CNR2; Flag-tagged CB2 with second intracellular loop and C-terminal tail of CB1; HEK293
Description: CRE-luciferase cAMP reporter, HEK293 on CB2-ICL2Cter (i2Cter)

[5] = system: T5, CB2-ICL1 (i1); details: agonist; inhibition of cAMP elevated by 10 µM forskolin, 4 h, 37 °C; pEC50 8.17±0.19
T5 construct: gene CNR2; Flag-tagged CB2 with first intracellular loop replaced by that of CB1; HEK293
Description: CRE-luciferase cAMP reporter, HEK293 on CB2-ICL1 (i1)

[6] = system: T6, CB2-ICL2 (i2); details: agonist; inhibition of cAMP elevated by 10 µM forskolin, 4 h, 37 °C; pEC50 7.74±0.09
T6 construct: gene CNR2; Flag-tagged CB2 with second intracellular loop replaced by that of CB1; HEK293
Description: CRE-luciferase cAMP reporter, HEK293 on CB2-ICL2 (i2)

[7] = system: T7, CB2-Cter (Cter); details: agonist, 4 h, 37 °C
T7 construct: gene CNR2; Flag-tagged CB2 with C-terminal tail replaced by that of CB1; HEK293
Description: CRE-luciferase cAMP reporter, HEK293 on CB2-Cter (Cter)

Cc1c(C(=O)c2cccc3ccccc23)c2cccc3c2n1[C@H](CN1CCOCC1)CO3 [WIN55,212-2]
EC50 [1]: 13.4 ± 7.3 nM | EC50 [2]: 3.8 ± 1.2 nM | EC50 [3]: 4.4 ± 2.4 nM | EC50 [4]: 149 ± 35 nM | EC50 [5]: 8 ± 2.8 nM | EC50 [6]: 19.2 ± 4.4 nM | EC50 ([7]; P139LCter, stimulation of cAMP, no forskolin, pEC50 7.53±0.11): 29.8 ± 7.1 nM | EC50 ([7]; inhibition of cAMP elevated by 10 µM forskolin, pEC50 8.23±0.03): 5.9 ± 0.4 nM
